Measured values published in US20090246169A1, “INDOLOPYRIDINES AS EG5 KINESIN MODULATORS” (priority 2006, published 2009).

Tested on: RKO p21 colon adenocarcinoma cells, uninduced (proliferating)
Test: Alamar Blue cell viability assay, RKO p21 uninduced (proliferating)
Format: cell-based
Settings: Homo sapiens; anti-proliferative/cytotoxic activity, 72 hours, without Ponasterone A; read-out: −log EC50 [mol/l] RKO p21 uninduced (proliferating) (converted)
Description: The anti-proliferative/cytotoxic activity of the compounds described herein can be tested on subclones of RKO human colon adenocarcinoma cells (Schmidt et al., Oncogene 19, 2423-2429; 2000) using the Alamar Blue cell viability assay (described in O'Brien et al. Eur J Biochem 267, 5421-5426, 2000). The compounds are dissolved as 10 mM solutions in DMSO and subsequently diluted in semi-logarithmic steps. DMSO dilutions are further diluted 1:100 into Dulbecco's modified Eagle's medium (DMEM) containing 10% fetal calf serum to a final concentration twice as much as the final concentration in the test. RKO subclones are seeded into 96 well flat bottom plates at a density of 4000 cells per well in a volume of 50 μl per well. 24 hours after seeding the 50 μl each of the compound dilutions in DMEM medium are added into each well of the 96 well plate. Each compound dilution is tested as triplicates. Wells containing untreated control cells are filled with 50 μl DMEM medium containing 1% DMSO. The cells are then incubated with the substances for 72 hours at 37° C. in a humidified atmosphere containing 5% carbon dioxide. To determine the viability of the cells, 10 μl of an Alamar Blue solution (Biosource) are added and the fluorescence is measured at an extinction of 544 nm and an emission of 590 nm. For the calculation of the cell viability the emission value from untreated cells is set as 100% viability and the emission rates of treated cells are set in relation to the values of untreated cells. Viabilities are expressed as % values. The Graphpad Prism program is used for the calculation of EC50 values for anti-proliferative/cytotoxic activity out of the obtained dose-response curves.
To determine the cell cycle specific mode of action, subclones of RKO colon adenocarcinoma cells (RKOp21 or RKOp27 as described by Schmidt et al. in Oncogene 19, 2423-2429; 2000) are seeded into 96 well flat bottom plates at a density of 16000 cells per well in a volume of 50 μl per well in DMEM growth medium with 10% FCS containing 10 μM Ponasterone A. 24 hours after seeding the 50 μl each of the compound dilutions in DMEM medium are added into each well of the 96-well plate. Each compound dilution is tested as triplicates. Wells containing untreated control cells are filled with 50 μl DMEM medium containing 1% DMSO. The cells are then incubated with the substances for 72 hours at 37° C. in a humidified atmosphere containing 5% carbon dioxide. To determine the viability of the cells, 10 μl of an Alamar Blue solution (Biosource) are added and the fluorescence is measured at an extinction of 544 nm and an emission of 590 nm. For the calculation of the cell viability the emission value from untreated cells is set as 100% viability and the emission rates of treated cells are set in relation to the values of untreated cells. Viabilities are expressed as % values. The Graphpad Prism program (GraphPad Software, Inc) is used for the calculation of EC50 values out of the obtained dose-response curves. Viability is compared of proliferating cells grown in the absence of the inducer Ponasterone A, versus viability of cells arrested by the expression of ectopic p27Kip1 induced by Ponasterone A.
Representative values for anti-proliferation/cytotoxicity [measured as −log EC50 (mol/l)] determined in the aforementioned assays follow from the following tables B1 and B2, in which the numbers of the compounds correspond to the numbers of the examples.

SMILES | EC50
COc1ccc2[nH]c3c(c2c1)C[C@@]1(C)C(=O)N(CCCNC(C)(C)C)C(=O)N1[C@@H]3c1ccccc1 (racemic) [Example 76, (3aSR, 10RS)-2-(3-tert-Butylamino-propyl)-6-methoxy-3a-methyl-10-phenyl-3a,4,9,10-tetrahydro-2,9,10a-triaza-cyclopenta[b] fluorene-1,3-dione] | ≤ 1000 nM
COc1ccc2[nH]c3c(c2c1)C[C@@]1(C)C(=O)N(CCCNC2CCC2)C(=O)N1[C@@H]3c1ccccc1 (racemic) [Example 72, (3aSR, 10RS)-2-(3-Cyclo-butylamino-propyl)-6-methoxy-3a-methyl-10-phenyl-3a,4,9,10-tetrahydro-2,9,10a-triaza-cyclopenta[b] fluorene-1,3-dione] | ≤ 1000 nM
COc1ccc2[nH]c3c(c2c1)C[C@@]1(C)C(=O)N(CCCN2CCCCC2)C(=O)N1[C@@H]3c1ccccc1 (racemic) [Example 65, (3aSR, 10RS)-6-Methoxy-3a-methyl-10-phenyl-2-(3-piperidin-1-yl-propyl)-3a,4,9,10-tetrahydro-2,9,10a-triaza-cyclopenta[b]fluorene-1,3-dione] | ≤ 1000 nM
CCN(CC)CCCN1C(=O)N2[C@H](c3ccccc3)c3[nH]c4ccc(OC)cc4c3C[C@@]2(C)C1=O (racemic) [Example 54, (3aSR, 10RS)-2-(3-Diethyl-amino-propyl)-6-methoxy-3a-methyl-10-phenyl-3a,4,9,10-tetrahydro-2,9,10a-triaza-cyclopenta[b]fluorene-1,3-dione] | ≤ 1000 nM
CNCCN1C(=O)N2[C@H](c3ccccc3)c3[nH]c4ccc(OC)cc4c3C[C@@]2(C)C1=O (racemic) [Example 14, (3aSR,10RS)-6-Methoxy-3a-methyl-2-(2-methylamino-ethyl)-10-phenyl-3a,4,9,10-tetrahydro-2,9,10a-triaza-cyclopenta[b]fluorene-1,3-dione] | ≤ 1000 nM
C=CCNCCCN1C(=O)N2[C@H](c3ccccc3)c3[nH]c4ccc(OC)cc4c3C[C@@]2(C)C1=O (racemic) [Example 77, (3aSR, 10RS)-2-(3-Allyl-amino-propyl)-6-methoxy-3a-methyl-10-phenyl-3a,4,9,10-tetrahydro-2,9,10a-triaza-cyclopenta[b]fluorene-1,3-dione] | ≤ 1000 nM
CCN(CCCN1C(=O)N2[C@H](c3ccccc3)c3[nH]c4ccc(OC)cc4c3C[C@@]2(C)C1=O)CCOC (racemic) [Example 56, (3aSR, 10RS)-2-{3-[Ethyl-(2-methoxy-ethyl)-amino]-propyl}-6-methoxy-3a-methyl-10-phenyl-3a,4,9,10-tetrahydro-2,9,10a-triaza-cyclopenta[b]fluorene-1,3-dione] | ≤ 1000 nM
COc1ccc2[nH]c3c(c2c1)C[C@@]1(C)C(=O)N(CCCN2CCOCC2)C(=O)N1[C@@H]3c1ccccc1 (racemic) [Example 61, (3aSR, 10RS)-6-Methoxy-3a-methyl-2-(3-morpholin-4-yl-propyl)-10-phenyl-3a,4,9,10-tetrahydro-2,9,10a-triaza-cyclopenta[b]fluorene-1,3-dione] | ≤ 1000 nM
COc1ccc2[nH]c3c(c2c1)C[C@@]1(C)C(=O)N(CCCN2CCN(C)CC2)C(=O)N1[C@@H]3c1ccccc1 (racemic) [Example 68, (3aSR, 10RS)-6-Methoxy-3a-methyl-2-[3-(4-methyl-piperazin-1-yl)-propyl]-10-phenyl-3a,4,9,10-tetrahydro-2,9,10a-triaza-cyclopenta [b]fluorene-1,3-dione] | ≤ 1000 nM
COc1ccc2[nH]c3c(c2c1)C[C@@]1(C)C(=O)N(CCCNC2CC2)C(=O)N1[C@@H]3c1ccccc1 (racemic) [Example 71, (3aSR, 10RS)-2-(3-Cyclo-propylamino-propyl)-6-methoxy-3a-methyl-10-phenyl-3a,4,9,10-tetrahydro-2,9,10a-triaza-cyclopenta[b] fluorene-1,3-dione] | ≤ 1000 nM
C=CCNCCN1C(=O)N2[C@H](c3ccccc3)c3[nH]c4ccc(OC)cc4c3C[C@@]2(C)C1=O (racemic) [Example 28, (3aSR, 10RS)-2-(2-Allyl-amino-ethyl)-6-methoxy-3a-methyl-10-phenyl-3a,4,9,10-tetrahydro-2,9,10a-triaza-cyclopenta[b]fluorene-1,3-dione] | ≤ 1000 nM
CCN(CCO)CCN1C(=O)N2[C@H](c3ccccc3)c3[nH]c4ccc(OC)cc4c3C[C@@]2(C)C1=O (racemic) [Example 36, (3aSR, 10RS)-2-{2-[Ethyl-(2-hydroxy-ethyl)-amino]-ethyl}-6-methoxy-3a-methyl-10-phenyl-3a,4,9,10-tetra-hydro-2,9,10a-triaza-cyclo-penta[b]fluorene-1,3-dione] | ≤ 1000 nM
COc1ccc2[nH]c3c(c2c1)C[C@@]1(C)C(=O)N(CCNC(C)C)C(=O)N1[C@@H]3c1ccccc1 (racemic) [Example 19, (3aSR,10RS)-2-(2-Isopropylamino-ethyl)-6-methoxy-3a-methyl-10-phenyl-3a,4,9,10-tetrahydro-2,9,10a-triaza-cyclopenta[b]fluorene-1,3-dione] | ≤ 1000 nM
COc1ccc2[nH]c3c(c2c1)C[C@@]1(C)C(=O)N(CCN2CCCC2)C(=O)N1[C@@H]3c1ccccc1 (racemic) [Example 3, (3aSR,10RS)-6-Methoxy-3a-methyl-10-phenyl-2-(2-pyrrolidin-1-yl-ethyl)-3a,4,9,10-tetrahydro-2,9,10a-triaza-cyclopenta[b]fluorene-1,3-dione] | ≤ 1000 nM
C=CCN(C)CCN1C(=O)N2[C@H](c3ccccc3)c3[nH]c4ccc(OC)cc4c3C[C@@]2(C)C1=O (racemic) [Example 37, (3aSR, 10RS)-2-[2-(Allyl-methyl-amino)-ethyl]-6-methoxy-3a-methyl-10-phenyl-3a,4,9,10-tetrahydro-2,9,10a-triaza-cyclopenta [b]fluorene-1,3-dione] | ≤ 1000 nM
COc1ccc2[nH]c3c(c2c1)C[C@@]1(C)C(=O)N(CCCN(C)C(C)C)C(=O)N1[C@@H]3c1ccccc1 (racemic) [Example 59, (3aSR, 10RS)-2-[3-(Isopropyl-methyl-amino)-propyl]-6-methoxy-3a-methyl-10-phenyl-3a,4,9,10-tetra-hydro-2,9,10a-triaza-cyclo-penta[b]fluorene-1,3-dione] | ≤ 1000 nM
CCN(CCO)CCCN1C(=O)N2[C@H](c3ccccc3)c3[nH]c4ccc(OC)cc4c3C[C@@]2(C)C1=O (racemic) [Example 55, (3aSR, 10RS)-2-{3-[Ethyl-(2-hydroxy-ethyl)-amino]-propyl}-6-methoxy-3a-methyl-10-phenyl-3a,4,9,10-tetrahydro-2,9,10a-triaza-cyclopenta[b]fluorene-1,3-dione] | ≤ 1000 nM
COc1ccc2[nH]c3c(c2c1)C[C@@]1(C)C(=O)N(CCCN2CCCCCC2)C(=O)N1[C@@H]3c1ccccc1 (racemic) [Example 78, (3aSR, 10RS)-2-(3-Azepan-1-yl-propyl)-6-methoxy-3a-methyl-10-phenyl-3a,4,9,10-tetrahydro-2,9,10a-triaza-cyclopenta[b]fluorene-1,3-dione] | ≤ 1000 nM
COc1ccc2[nH]c3c(c2c1)C[C@@]1(C)C(=O)N(CCCN2CCC2)C(=O)N1[C@@H]3c1ccccc1 (racemic) [Example 60, (3aSR, 10RS)-2-(3-Azetidin-1-yl-propyl)-6-methoxy-3a-methyl-10-phenyl-3a,4,9,10-tetrahydro-2,9,10a-triaza-cyclopenta[b]fluorene-1,3-dione] | ≤ 1000 nM
COc1ccc2[nH]c3c(c2c1)C[C@@]1(C)C(=O)N(CCN2CCCCCC2)C(=O)N1[C@@H]3c1ccccc1 (racemic) [Example 43, (3aSR, 10RS)-2-(2-Azepan-1-yl-ethyl)-6-methoxy-3a-methyl-10-phenyl-3a,4,9,10-tetrahydro-2,9,10a-triaza-cyclopenta[b]fluorene-1,3-dione] | ≤ 1000 nM
COc1ccc2[nH]c3c(c2c1)C[C@@]1(C)C(=O)N(CCCN2CCCC2)C(=O)N1[C@@H]3c1ccccc1 (racemic) [Example 62, (3aSR, 10RS)-6-Methoxy-3a-methyl-10-phenyl-2-(3-pyrrolidin-1-yl-propyl)-3a,4,9,10-tetrahydro-2,9,10a-triaza-cyclopenta[b]fluorene-1,3-dione] | ≤ 1000 nM
